Measured values taken from BindingDB's records for patent US10821115 (Amgen, 2020).
Values joined by “and” are separate entries in the source; they are usually repeats but may differ in a detail not shown here. Identical values can stand only once.

Target: T1, Induced myeloid leukemia cell differentiation protein Mcl-1 [171-327] (Homo sapiens, UniProt Q07820)
T1 construct: 171-327
Assay: Time-Resolved Fluorescence Resonance Energy Transfer (TR-FRET) Assay

T1 sequence (Q07820 171-327): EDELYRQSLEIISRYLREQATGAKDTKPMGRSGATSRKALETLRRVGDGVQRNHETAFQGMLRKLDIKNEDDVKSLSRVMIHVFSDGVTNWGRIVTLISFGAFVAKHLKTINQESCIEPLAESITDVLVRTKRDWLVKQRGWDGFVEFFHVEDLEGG

Row | Structure (SMILES) | IC50
1 | CO[C@@]1(CC(=O)NCCO)/C=C/C[C@H](C)[C@@H](C)S(=O)(=O)NC(=O)c2ccc3c(c2)N(C[C@@H]2CC[C@H]21)C[C@@]1(CCCc2cc(Cl)ccc21)CO3 [US10821115, Example 100465] | 0.121 nM
2 | CO[C@]1(c2cccc(F)n2)/C=C/C[C@H](C)[C@@H](C)S(=O)(=O)NC(=O)c2ccc3c(c2)N(C[C@@H]2CC[C@H]21)C[C@@]1(CCCc2cc(Cl)ccc21)CO3 [US10821115, Example 100339] | 0.779 nM
3 | CCO[C@]1(CN2CCN(C(COC)COC)CC2)/C=C/C[C@H](C)[C@@H](C)S(=O)(=O)NC(=O)c2ccc3c(c2)N(C[C@@H]2CC[C@H]21)C[C@@]1(CCCc2cc(Cl)ccc21)CO3 [US10821115, Example 116] | 0.244 nM
4 | COC(=O)[C@H](NC(=O)C[C@]1(OC)/C=C/C[C@H](C)[C@@H](C)S(=O)(=O)NC(=O)c2ccc3c(c2)N(C[C@@H]2CC[C@H]21)C[C@@]1(CCCc2cc(Cl)ccc21)CO3)[C@@H](C)O [US10821115, Example 100581] | 0.363 nM
5 | COCC(COC)N1CCN(C[C@]2(OC)/C=C/C[C@H](C)[C@@H](C)S(=O)(=O)NC(=O)c3ccc4c(c3)N(C[C@@H]3CC[C@H]32)C[C@@]2(CCCc3cc(Cl)ccc32)CO4)CC1 [US10821115, Example 287] | 0.137 nM
6 | COC(=O)CNC(=O)C[C@]1(OC)/C=C/C[C@H](C)[C@@H](C)S(=O)(=O)NC(=O)c2ccc3c(c2)N(C[C@@H]2CC[C@H]21)C[C@@]1(CCCc2cc(Cl)ccc21)CO3 [US10821115, Example 100550] | 0.059 nM
7 | CO[C@@]1(CN2CCN(C3CCOCC3)CC2)/C=C/C[C@H](C)[C@@H](C)S(=O)(=O)NC(=O)c2ccc3c(c2)N(C[C@@H]2CC[C@H]21)C[C@@]1(CCCc2cc(Cl)ccc21)CO3 [US10821115, Example 262] | 0.093 nM
8 | CO[C@@]1(CC(=O)NC(C)(C)C(=O)O)/C=C/C[C@H](C)[C@@H](C)S(=O)(=O)NC(=O)c2ccc3c(c2)N(C[C@@H]2CC[C@H]21)C[C@@]1(CCCc2cc(Cl)ccc21)CO3 [US10821115, Example 100546] | 0.084 nM
9 | CO[C@]1(CN2CCN(C3(C)COC3)CC2)/C=C/C[C@H](C)[C@@H](C)S(=O)(=O)NC(=O)c2ccc3c(c2)N(C[C@@H]2CC[C@H]21)C[C@@]1(CCCc2cc(Cl)ccc21)CO3 [US10821115, Example 319] | 0.081 nM
10 | CO[C@]1(c2cccnc2F)/C=C/C[C@H](C)[C@@H](C)S(=O)(=O)NC(=O)c2ccc3c(c2)N(C[C@@H]2CC[C@H]21)C[C@@]1(CCCc2cc(Cl)ccc21)CO3 [US10821115, Example 100324] | 0.244 nM and 0.182 nM
11 | CCN(CC)C(=O)C[C@]1(OC)/C=C/C[C@H](C)[C@@H](C)S(=O)(=O)NC(=O)c2ccc3c(c2)N(C[C@@H]2CC[C@H]21)C[C@@]1(CCCc2cc(Cl)ccc21)CO3 [US10821115, Example 100347] | 0.689 nM
12 | CO[C@@]1(c2cccnn2)/C=C/C[C@H](C)[C@@H](C)S(=O)(=O)N(C)C(=O)c2ccc3c(c2)N(C[C@@H]2CC[C@H]21)C[C@@]1(CCCc2cc(Cl)ccc21)CO3 [US10821115, Example 100350] | 0.489 nM
13 | CO[C@@]1(CN2CCC(N3CCOCC3)CC2)/C=C/C[C@H](C)[C@@H](C)S(=O)(=O)NC(=O)c2ccc3c(c2)N(C[C@@H]2CC[C@H]21)C[C@@]1(CCCc2cc(Cl)ccc21)CO3 [US10821115, Example 263] | 0.147 nM
14 | CO[C@@]1(CN2CCN(CC(CO)CO)CC2)/C=C/C[C@H](C)[C@@H](C)S(=O)(=O)NC(=O)c2ccc3c(c2)N(C[C@@H]2CC[C@H]21)C[C@@]1(CCCc2cc(Cl)ccc21)CO3 [US10821115, Example 310] | 0.117 nM
15 | C[C@@H]1[C@@H](C)C/C=C/[C@](O)(C#CCCc2ccccn2)[C@@H]2CC[C@H]2CN2C[C@@]3(CCCc4cc(Cl)ccc43)COc3ccc(cc32)C(=O)NS1(=O)=O [US10821115, Example 100455] | 0.087 nM
16 | CO[C@@]1(CC(=O)N(C)C2CC2)/C=C/C[C@H](C)[C@@H](C)S(=O)(=O)NC(=O)c2ccc3c(c2)N(C[C@@H]2CC[C@H]21)C[C@@]1(CCCc2cc(Cl)ccc21)CO3 [US10821115, Example 100374] | 0.289 nM
17 | CCO[C@@]1(CN2CCN(C3(C)COC3)CC2)/C=C/C[C@H](C)[C@@H](C)S(=O)(=O)NC(=O)c2ccc3c(c2)N(C[C@@H]2CC[C@H]21)C[C@@]1(CCCc2cc(Cl)ccc21)CO3 [US10821115, Example 311] | 0.324 nM
18 | CO[C@@]1(CC(=O)N(C)C)/C=C/C[C@H](C)[C@@H](C)S(=O)(=O)NC(=O)c2ccc3c(c2)N(C[C@@H]2CC[C@H]21)C[C@@]1(CCCc2cc(Cl)ccc21)CO3 [US10821115, Example 100135] | 0.173 nM
19 | CCO[C@@]1(CN2CCC(N(CCOC)CCOC)CC2)/C=C/C[C@H](C)[C@@H](C)S(=O)(=O)NC(=O)c2ccc3c(c2)N(C[C@@H]2CC[C@H]21)C[C@@]1(CCCc2cc(Cl)ccc21)CO3 [US10821115, Example 312] | 0.576 nM
20 | CO[C@@]1(CN2CCN([C@H](CCO)CC(=O)O)CC2)/C=C/C[C@H](C)[C@@H](C)S(=O)(=O)NC(=O)c2ccc3c(c2)N(C[C@@H]2CC[C@H]21)C[C@@]1(CCCc2cc(Cl)ccc21)CO3 [US10821115, Example 278] | 0.039 nM
21 | CO[C@@]1(CC(N)=O)/C=C/C[C@H](C)[C@@H](C)S(=O)(=O)NC(=O)c2ccc3c(c2)N(C[C@@H]2CC[C@H]21)C[C@@]1(CCCc2cc(Cl)ccc21)CO3 [US10821115, Example 100589] | 1.83 nM
22 | CO[C@@]1(CN2CCN(CCS(C)(=O)=O)CC2)/C=C/C[C@H](C)[C@@H](C)S(=O)(=O)NC(=O)c2ccc3c(c2)N(C[C@@H]2CC[C@H]21)C[C@@]1(CCCc2cc(Cl)ccc21)CO3 [US10821115, Example 81] | 0.14 nM
23 | COC(=O)C(C)(C)NC(=O)C[C@]1(OC)/C=C/C[C@H](C)[C@@H](C)S(=O)(=O)NC(=O)c2ccc3c(c2)N(C[C@@H]2CC[C@H]21)C[C@@]1(CCCc2cc(Cl)ccc21)CO3 [US10821115, Example 100544] | 0.171 nM
24 | CO[C@]1(CN2CCN(CC(F)(F)F)CC2)/C=C/C[C@H](C)[C@@H](C)S(=O)(=O)NC(=O)c2ccc3c(c2)N(C[C@@H]2CC[C@H]21)C[C@@]1(CCCc2cc(Cl)ccc21)CO3 [US10821115, Example 93] | 0.53 nM
25 | COCCN(CCOC)C1CCN(C[C@]2(OC)/C=C/C[C@H](C)[C@@H](C)S(=O)(=O)NC(=O)c3ccc4c(c3)N(C[C@@H]3CC[C@H]32)C[C@@]2(CCCc3cc(Cl)ccc32)CO4)CC1 [US10821115, Example 308] | 0.111 nM
26 | CO[C@@]1(CC(=O)NCc2ncco2)/C=C/C[C@H](C)[C@@H](C)S(=O)(=O)NC(=O)c2ccc3c(c2)N(C[C@@H]2CC[C@H]21)C[C@@]1(CCCc2cc(Cl)ccc21)CO3 [US10821115, Example 100577] | 0.045 nM
27 | CO[C@@]1(CN2CCN([C@H]3CCOC(=O)C3)CC2)/C=C/C[C@H](C)[C@@H](C)S(=O)(=O)NC(=O)c2ccc3c(c2)N(C[C@@H]2CC[C@H]21)C[C@@]1(CCCc2cc(Cl)ccc21)CO3 [US10821115, Example 271] | 0.031 nM
28 | C[C@@H]1[C@@H](C)C/C=C/[C@@](O)(c2ccc(F)nc2)[C@@H]2CC[C@H]2CN2C[C@@]3(CCCc4cc(Cl)ccc43)COc3ccc(cc32)C(=O)NS1(=O)=O (single isomer, unassigned) [US10821115, Example 100420] | 0.112 nM
